Results on seven compounds are retold here after patent US4353912A, “N-Haloalkyl nor apomorphines and method of inactivating dopamine receptor sites and enhancing dopaminergic activity therewith” (Northeastern University, priority 1980, dated 1982).

Experiment [1] relates to striatal dopamine receptors. The experiment in a line: Apomorphine-induced circling in unilateral striatectomized mice. Format: in vivo. Here is the method: Among such induced behavioral characteristics are circling, climbing and stereotypy.
Male albino mice in the weight range of 35-40 grams were used in the determination of circling behavior. The mice were prepared for circling experiments using standard stereotaxic techniques to place unilateral electrolesions in the right caudate-putamen (1.0 mm anterior to bregma, 2.0 mm lateral and 3.5 mm below the skull surface, 1.5 mA/15 s). […] Those mice circling less than 6 revolutions every 2 minutes were excluded from subsequent studies.

Experiment [2] has as its system dopamine receptors. The experiment in a line: Circling/asymmetry in rats after unilateral intrastriatal injection and apomorphine challenge. Format: in vivo, rat. Here is the method: A further behavioral model utilized rats (male, Sprague-Dawley, 300±25 g). […] Bilateral guide cannulae were chronically implanted in the rats, using standard stereotaxic techniques, to allow drug/vehicle injection at the center of the caudate-putamen complex (Ant. 8.0, Lat. +3.0, Vert. +1.5, De Groot, 1959). Fourteen days after cannulation, the animals were manually restrained and the drug in a solvent vehicle was injected in a volume of 4 μliters (1 μliter/min) into the right and left striata, respectively. The 4 μliter contained dosages of 10 μg or 40 μg of the drug.
The resting asymmetry was particularly evident when the animals were disturbed and was also noted two and five days after the injection of the (-)N-(2-chloroethyl)norapomorphine. By the seventh day the ipsilateral asymmetry was variable and was not apparent by the fourteenth day.
Again, as in the circling experiments with the mice, it was apparent that the dopamine inhibitory actions of the drug endured for 2 to 4 days. The recovery of the behavioral response possibly reflects the resynthesis of dopamine receptors.

Experiment [3] has as its system dopamine receptors. The experiment in a line: Apomorphine-induced climbing in mice (climbing index). Format: in vivo. The following applies: for effect on apomorphine climbing index: apomorphine 1.0 mg/kg s.c.; for effect on apomorphine climbing: 10 mg/kg s.c. On the procedure:
Climbing behavior was measured by placing mice in individual cages (20×15×15 cm) lined with wire mesh. A "climbing index", i.e., the percentage of time spent climbing during the 30-minute period following the first climb, was determined.

The subject of experiment [4] is dopamine receptors. Description: Apomorphine-induced stereotypy. Format: in vivo. The following applies: 10 mg/kg pretreatment; apomorphine 1 mg/kg. An excerpt: Apomorphine-induced behavioral characteristics in the rodent are considered to involve dopamine agonist action on striatal and mesolimbic dopamine receptors. […] Among such induced behavioral characteristics are circling, climbing and stereotypy.

For experiment [5], the target named is T1, dopamine-sensitive adenylate cyclase (Rattus norvegicus, UniProt P18901). The experiment in a line: Inhibition of activation of dopamine-sensitive adenylate cyclase in rat striatal homogenates. The experiment is classed as biochemical. On the procedure: Washed tissue, including one specimen without NCA as a control, was then incubated with zero or 50 μM of dopamine in the presence of an excess of adenosine triphosphate for 2.5 minutes at 37° and the level of cyclic adenosine monophosphate in the incubation mixture with and without dopamine was assayed by a protein binding method. The increase in cyclic adenosine monophosphate levels due to the dopamine was estimated for all conditions.

Experiment [6] addresses T2, dopamine receptors (^3 H-NPA binding sites) (Rattus norvegicus, UniProt P61169).
Experiment [7] concerns the target T2, dopamine receptors (^3 H-NPA binding sites). Description: In vitro inhibition of ^3 H-NPA binding to rat striatal homogenate. The following applies: for reversal of inhibition of ^3 H-NPA binding by washing of membranes: FIG. 8.
For experiment [8], the target named is T1, dopamine-sensitive adenylate cyclase. Particulars: Walton et al., Eur. J. Pharmacol. 52: 231 (1978); cited from earlier work.

Where a name gives a salt, the structure may show the parent alone.

T1 sequence (P18901 whole entry): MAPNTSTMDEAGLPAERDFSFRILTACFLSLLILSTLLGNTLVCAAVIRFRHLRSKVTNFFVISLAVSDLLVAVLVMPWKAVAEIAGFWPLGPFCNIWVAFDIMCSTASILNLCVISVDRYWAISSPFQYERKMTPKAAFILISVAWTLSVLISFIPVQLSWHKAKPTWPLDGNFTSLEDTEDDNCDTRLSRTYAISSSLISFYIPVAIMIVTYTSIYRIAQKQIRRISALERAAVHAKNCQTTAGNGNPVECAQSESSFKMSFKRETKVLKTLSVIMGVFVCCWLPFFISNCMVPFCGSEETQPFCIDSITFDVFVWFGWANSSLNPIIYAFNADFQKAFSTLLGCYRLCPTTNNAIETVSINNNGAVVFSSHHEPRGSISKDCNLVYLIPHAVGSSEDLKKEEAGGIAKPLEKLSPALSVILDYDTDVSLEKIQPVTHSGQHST
T1 sequence (Q04400 whole entry partner): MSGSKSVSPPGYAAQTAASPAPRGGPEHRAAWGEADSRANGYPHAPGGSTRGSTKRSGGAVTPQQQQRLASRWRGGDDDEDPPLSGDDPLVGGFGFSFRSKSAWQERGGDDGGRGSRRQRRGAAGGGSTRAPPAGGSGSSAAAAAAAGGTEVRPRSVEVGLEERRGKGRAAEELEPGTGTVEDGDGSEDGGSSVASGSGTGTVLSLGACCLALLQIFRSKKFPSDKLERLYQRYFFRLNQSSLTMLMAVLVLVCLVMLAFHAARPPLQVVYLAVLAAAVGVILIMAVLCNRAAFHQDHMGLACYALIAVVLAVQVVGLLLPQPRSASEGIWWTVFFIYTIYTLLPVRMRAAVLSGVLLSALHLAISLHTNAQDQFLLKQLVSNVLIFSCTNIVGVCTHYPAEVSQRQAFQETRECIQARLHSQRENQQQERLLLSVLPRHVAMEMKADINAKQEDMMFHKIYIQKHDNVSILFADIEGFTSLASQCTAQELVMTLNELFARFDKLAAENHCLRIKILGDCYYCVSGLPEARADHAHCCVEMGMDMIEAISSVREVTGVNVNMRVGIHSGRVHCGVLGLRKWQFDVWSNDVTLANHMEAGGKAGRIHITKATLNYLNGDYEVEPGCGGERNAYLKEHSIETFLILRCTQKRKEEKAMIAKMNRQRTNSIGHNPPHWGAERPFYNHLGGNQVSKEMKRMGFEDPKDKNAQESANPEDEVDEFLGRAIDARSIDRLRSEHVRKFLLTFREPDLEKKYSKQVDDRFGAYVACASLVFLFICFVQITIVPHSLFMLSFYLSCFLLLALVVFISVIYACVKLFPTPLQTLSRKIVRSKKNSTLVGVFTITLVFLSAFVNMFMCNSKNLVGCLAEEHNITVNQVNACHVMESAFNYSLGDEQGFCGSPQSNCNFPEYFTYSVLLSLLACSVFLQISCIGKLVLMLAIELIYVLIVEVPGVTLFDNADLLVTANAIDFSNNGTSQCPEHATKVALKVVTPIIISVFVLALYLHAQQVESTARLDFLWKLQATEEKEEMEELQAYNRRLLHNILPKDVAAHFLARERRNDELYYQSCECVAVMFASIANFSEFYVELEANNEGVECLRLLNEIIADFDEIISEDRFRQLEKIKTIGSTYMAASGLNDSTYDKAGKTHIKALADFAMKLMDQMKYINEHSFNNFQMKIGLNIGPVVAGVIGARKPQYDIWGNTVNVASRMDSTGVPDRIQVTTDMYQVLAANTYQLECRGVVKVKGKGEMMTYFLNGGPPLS
T2 sequence (P61169 whole entry): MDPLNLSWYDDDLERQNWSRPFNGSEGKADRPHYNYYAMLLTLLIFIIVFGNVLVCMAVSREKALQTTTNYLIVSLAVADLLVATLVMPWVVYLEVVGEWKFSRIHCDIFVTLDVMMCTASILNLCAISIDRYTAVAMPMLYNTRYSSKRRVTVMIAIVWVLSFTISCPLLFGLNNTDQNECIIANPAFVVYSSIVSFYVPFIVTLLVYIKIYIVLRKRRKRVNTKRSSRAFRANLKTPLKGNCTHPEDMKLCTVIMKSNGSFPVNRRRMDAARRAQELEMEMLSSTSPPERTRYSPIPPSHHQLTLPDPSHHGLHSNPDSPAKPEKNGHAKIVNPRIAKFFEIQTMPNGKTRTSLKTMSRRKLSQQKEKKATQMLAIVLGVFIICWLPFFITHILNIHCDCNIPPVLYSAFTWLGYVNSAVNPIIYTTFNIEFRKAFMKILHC

On to `CN1CCc2cccc3c2[C@H]1Cc1ccc(O)c(O)c1-3` [apomorphine], for which the circling behavior in experiment [1] (0.25-1 mg/kg apomorphine, dose-dependent) was 2-10 revolutions every 12 minutes.

In general, inhibition refers to the relative decrease from the control value, in per cent. As a reminder, the IC50 is the concentration that gives 50% inhibition. Low readings indicate higher potency, high ones lower potency. As for `Oc1ccc2c(c1O)-c1cccc3c1[C@@H](C2)N(CCCl)CC3` [NCA], the “inhibition of apomorphine-induced circling” value in experiment [1] (1.0 mg/kg s.c., apomorphine 0.5 mg/kg s.c., 4 hours to 7 days after administration) is “essentially no inhibition”. Besides, the reduction in circling entry is on record as “still apparent” in experiment [1] (higher dosage levels (2.0 or 4.0 mg/kg s.c.), after 2 days) and 39% in experiment [1] (highest dosage level (4.0 mg/kg s.c.), after 5 days). The “circling on apomorphine challenge” value in the experiment on dopamine receptors [2] (40 μg intrastriatal, apomorphine 0.5 mg/kg s.c., four hours and two days, to a lesser extent 5 days after administration) is recorded as “precipitated a clear circling behavior”. Also, in the experiment with dopamine receptors [2] (10 and 40 μg intrastriatal), the “ipsilateral asymmetry/circling movements after unilateral injection into the caudate-putamen” value is reported as “induced ipsilateral asymmetry/circling movements within an hour”. Moreover, the resting ipsilateral asymmetry entry in the experiment on dopamine receptors [2] (fourteenth day) is recorded as “not apparent”; in the experiment with dopamine receptors [2] (seventh day), “variable”; with dopamine receptors [2] (two and five days after injection) it was “noted”. The “effect on apomorphine climbing index” value was “reduced this index” with dopamine receptors [3] (10 mg/kg i.p. pretreatment) and “greatly reduced” with dopamine receptors [3] (20 mg/kg i.p. pretreatment). Besides, the “duration of reduction of climbing index” value with dopamine receptors [3] (after i.p. administration) is “up to between four and five days”. The “effect on submaximal stereotypic effect of apomorphine (repetitive sniffing, periodic biting, continuous biting)” value in the experiment on dopamine receptors [4] was “failed to modify”. The compound also yielded a percent dopamine stimulation of cAMP production at 10 µM in experiment [5] (10 min, NCA 10 μM, 10 min 37° C. preincubation, washed, 50 μM dopamine) of 84%. The compound further returned a percent dopamine stimulation of cAMP production at 30 µM in experiment [5] (10 min, NCA 30 μM, 10 min 37° C. preincubation, washed, 50 μM dopamine) of 44%. In addition, the percent dopamine stimulation of cAMP production at 75 µM in experiment [5] (10 min, NCA 75 μM, 10 min 37° C. preincubation, washed, 50 μM dopamine) amounted to 8%. This compound gave an inhibition at 10 µM in experiment [5] (NCA 10 μM) of 16%. For the same compound, 30 µM produced 56% inhibition in experiment [5] (NCA 30 μM). Moreover, the inhibition at 75 µM in experiment [5] (NCA 75 μM) came out at 92%. The “reduction of number of ^3 H-NPA binding sites” value in experiment [6] (40 μg NCA intrastriatal, day 2) is on record as “approximately 50%”. Further, the “number of sites available for ^3 H-NPA binding” value in experiment [6] (40 μg NCA intrastriatal, days 7 and 14) is given as “returned to control values”. In experiment [7], this compound gave an IC50 of 1800 nM. The “reversal of inhibition of ^3 H-NPA binding by washing of membranes” value in experiment [7] (5×10^-6 M) was “not reversed”. For the same compound, in experiment [7] (NCA 10^-5 M, repeated washing), the “reversal of prevention of ^3 H-NPA binding by washing” value was “not reversed by repeated washing”. Further, the “inhibition of ^3 H-NPA binding in the presence of blocking agents” value in experiment [7] (high concentrations of phentolamine and propranolol, NCA 3×10^-5 M) is given as “also apparent”.

Regarding `OCCN1CCc2cccc3c2[C@H]1Cc1ccc(O)c(O)c1-3` [(-)N-(2-hydroxyethyl)norapomorphine.HCl], the “effect on apomorphine climbing” value in the experiment with dopamine receptors [3] (90-minute pretreatment) is given as “failed to modify apomorphine climbing”. In addition, the “reversal of inhibition of ^3 H-NPA binding by washing of membranes” value in experiment [7] (5×10^-7 M) is “reversed”.

In the case of `CC(COc1ccccc1)N(CCCl)Cc1ccccc1` (centres unmarked) [phenoxybenzamine], the “action on dopamine-sensitive adenylate cyclase” value in experiment [8] is “irreversible blocking action”.

Regarding `COc1ccc2c(c1O)-c1cccc3c1[C@@H](C2)N(CCCl)CC3` [(-)N-(2-chloroethyl)norapocodiene.HCl, reference compound], the “effect on apomorphine climbing” value in the experiment on dopamine receptors [3] (four-hour pretreatment) is reported as “failed to modify apomorphine climbing”.

For the compound `CCCN1CCc2cccc3c2C1Cc1ccc(O)c(O)c1-3` (single isomer, unassigned) [^3 H-NPA, ^3 H-N-n-propylnorapomorphine, reference compound], in experiment [6], the “density of ^3 H-NPA binding sites” value is on record as “approximately 180 fmol/mg protein”. For the same compound, in experiment [7], the Bmax is reported as 190 fmol/mg protein.

As to `COc1ccc2c(c1OC(C)=O)-c1cc(O)cc3c1C(C2)N(C(=O)CN(CCCl)CCCl)CC3` (centres unmarked) [6-[2-bis(2-chloroethyl)amino]acetyl-11-acetoxy-2-hydroxy-10-methoxy-apoporphine hemihydrate, reference compound], the “effect on apomorphine climbing” value with dopamine receptors [3] (four-hour pretreatment) was “failed to modify apomorphine climbing”.
